We go through 18 compounds from ChEMBL document CHEMBL1201862, “PubChem BioAssay data set” (2004).

As usually defined, the AC50 is the midpoint of the concentration-response curve, whichever way the signal moves. What is called EC50 is the concentration needed to bring the measured effect to its halfway point. For orientation: IC50 means the point on the concentration scale where inhibition reaches its midpoint.

One assay deals with HeLa. Nature of the assay: ATP-based viability loss in HeLa cells – cell-based, CellTiter-Glo luminescence, cherry-pick samples, cytotoxicity control for MITF activator project, dose response (AID 540259). Format: functional. To be noted: Homo sapiens. In general terms: ATP-based viability assays read luminescence as a measure of living cells.
The subject of another assay is H4. In words: Luminescence Cell-Based Dose Response HTS to Identify Activators of 5'UTR Stem-Loop Driven Prion Protein mRNA Translation in H4 Neuroglioblastoma Cells. [Related pubchem assays: 1829 (Project Summary), 1814 (Primary HTS)]. It counts as functional. As to conditions: Homo sapiens.
A short description of assay [1]: Luminescence Cell-Based Dose Response HTS to Identify Activators of Luciferase Translation or Activity in H4 […] Cells. [Related pubchem assays: 1829 (Project Summary), 1814 (Primary HTS)]. Format: functional.
Assay [2] concerns the target T1, Endoribonuclease toxin MazF (Escherichia coli K-12, UniProt P0AE70).
T1 sequence (P0AE70 whole entry): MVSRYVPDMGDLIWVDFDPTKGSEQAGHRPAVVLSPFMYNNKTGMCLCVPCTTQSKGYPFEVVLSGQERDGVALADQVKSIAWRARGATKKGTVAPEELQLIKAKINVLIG
In words: activation of MazEF endoribonuclease cleavage – biochemical, fluorescence, single-stranded RNA substrate, uHTS hits, dose response (AID 588481). It counts as functional.

Assay [3] deals with T1, Endoribonuclease toxin MazF. Nature of the assay: substrate-only fluorescence increase artefacts – biochemical, single-stranded RNase substrate, counter-screen for MazEF activator project, dose response (AID 588502). Format: functional. Background: Counterscreens check selectivity or assay interference.
Another assay has as its target T2, Coagulation factor XII (Homo sapiens, UniProt P00748).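 Note: activated factor XIIa alpha cleaving a fluorogenic AMC peptide substrate; inhibitor potency from loss of enzyme activity.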
T2 sequence (P00748 whole entry): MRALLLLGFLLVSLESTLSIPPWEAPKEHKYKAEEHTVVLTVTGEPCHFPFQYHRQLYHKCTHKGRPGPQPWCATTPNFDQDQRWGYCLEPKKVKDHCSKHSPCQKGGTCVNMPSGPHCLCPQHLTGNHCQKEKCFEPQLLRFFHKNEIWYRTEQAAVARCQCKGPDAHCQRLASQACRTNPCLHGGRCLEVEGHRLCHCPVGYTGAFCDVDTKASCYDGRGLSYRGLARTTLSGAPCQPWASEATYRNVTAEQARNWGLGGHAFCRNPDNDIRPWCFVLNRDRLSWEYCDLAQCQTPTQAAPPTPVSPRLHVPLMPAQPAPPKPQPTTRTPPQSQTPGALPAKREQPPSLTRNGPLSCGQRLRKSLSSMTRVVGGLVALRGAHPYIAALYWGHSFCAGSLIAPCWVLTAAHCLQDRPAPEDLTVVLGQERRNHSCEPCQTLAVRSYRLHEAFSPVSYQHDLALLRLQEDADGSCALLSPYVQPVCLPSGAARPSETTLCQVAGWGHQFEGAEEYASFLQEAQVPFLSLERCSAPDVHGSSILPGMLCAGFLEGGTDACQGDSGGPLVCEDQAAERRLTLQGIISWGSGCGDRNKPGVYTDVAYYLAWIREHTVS
It counts as functional.

Assay [4] deals with Glyceraldehyde-3-phosphate dehydrogenase (Homo sapiens, UniProt P04406).
Chain of Glyceraldehyde-3-phosphate dehydrogenase (P04406 whole entry): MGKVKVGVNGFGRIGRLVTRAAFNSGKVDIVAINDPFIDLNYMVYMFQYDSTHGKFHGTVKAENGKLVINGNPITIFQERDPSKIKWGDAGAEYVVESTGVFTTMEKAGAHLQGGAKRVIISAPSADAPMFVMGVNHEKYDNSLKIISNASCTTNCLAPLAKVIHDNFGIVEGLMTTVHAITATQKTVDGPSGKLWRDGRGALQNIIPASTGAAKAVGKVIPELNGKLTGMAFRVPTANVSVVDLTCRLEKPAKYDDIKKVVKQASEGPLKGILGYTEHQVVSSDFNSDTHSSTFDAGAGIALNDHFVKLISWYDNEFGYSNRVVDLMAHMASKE
In assay [5] the target is T3, Heat shock factor protein 1 (Mus musculus, UniProt P38532).
T3 sequence (P38532 whole entry): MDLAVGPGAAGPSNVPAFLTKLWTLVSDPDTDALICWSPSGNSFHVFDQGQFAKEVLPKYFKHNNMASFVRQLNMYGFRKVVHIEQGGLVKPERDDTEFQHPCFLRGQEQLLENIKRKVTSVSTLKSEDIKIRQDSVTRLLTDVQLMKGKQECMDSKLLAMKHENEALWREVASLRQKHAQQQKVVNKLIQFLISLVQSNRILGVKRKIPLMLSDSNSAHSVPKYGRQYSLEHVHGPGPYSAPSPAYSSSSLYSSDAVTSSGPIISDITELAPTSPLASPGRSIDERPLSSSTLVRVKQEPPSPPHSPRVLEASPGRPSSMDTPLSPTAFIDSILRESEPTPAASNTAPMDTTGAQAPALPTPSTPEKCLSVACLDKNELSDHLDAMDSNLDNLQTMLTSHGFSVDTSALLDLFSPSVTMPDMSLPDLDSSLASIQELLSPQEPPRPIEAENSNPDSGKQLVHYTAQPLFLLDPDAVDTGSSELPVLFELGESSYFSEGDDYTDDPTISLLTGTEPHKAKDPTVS
Nature of the assay: enhancement of HSF1-driven luciferase signal – cell-based, NIH3T3, luminescence, dose retest, confirmation (AID 435004).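 Note: stress induced by proteasome inhibitor MG132 added 30 min after compound; luciferase reporter driven by HSF1 response element in NIH3T3 cells; actives raise luminescence as potentiators of the MG132 stress response.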 Format: functional.

A further assay deals with T4, Leucine aminopeptidase (Plasmodium falciparum 3D7, UniProt Q8IL11).
T4 sequence (Q8IL11 whole entry): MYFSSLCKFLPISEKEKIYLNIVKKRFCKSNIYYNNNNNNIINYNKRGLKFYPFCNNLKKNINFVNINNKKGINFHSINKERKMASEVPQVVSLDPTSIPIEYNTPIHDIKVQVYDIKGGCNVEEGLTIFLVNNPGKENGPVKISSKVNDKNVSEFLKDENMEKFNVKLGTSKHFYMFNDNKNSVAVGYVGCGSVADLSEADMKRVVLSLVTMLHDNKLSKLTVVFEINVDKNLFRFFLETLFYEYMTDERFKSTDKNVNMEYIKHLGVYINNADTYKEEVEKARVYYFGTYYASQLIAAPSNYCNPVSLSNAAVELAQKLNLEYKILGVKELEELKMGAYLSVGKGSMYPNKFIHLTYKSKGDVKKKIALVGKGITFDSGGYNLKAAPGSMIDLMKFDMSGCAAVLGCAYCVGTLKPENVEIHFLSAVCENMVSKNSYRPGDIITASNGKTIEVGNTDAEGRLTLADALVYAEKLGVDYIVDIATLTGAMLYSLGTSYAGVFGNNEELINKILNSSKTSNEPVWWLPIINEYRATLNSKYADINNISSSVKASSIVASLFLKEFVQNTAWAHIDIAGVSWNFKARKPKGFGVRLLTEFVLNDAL
In words: P. falciparum M17LAP inhibitors, primary screen, biochemical, fluorogenic H-Leu-NHMec substrate, 1536-well (AID 1619). Format: functional.

The target of assay [6] is T5, Ubiquitin-conjugating enzyme E2 N (Homo sapiens, UniProt P61088).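 Note: Dose-response confirmation in a TR-FRET assay detecting UBC13-driven polyubiquitin chain formation, inhibition measured.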
T5 sequence (P61088 whole entry): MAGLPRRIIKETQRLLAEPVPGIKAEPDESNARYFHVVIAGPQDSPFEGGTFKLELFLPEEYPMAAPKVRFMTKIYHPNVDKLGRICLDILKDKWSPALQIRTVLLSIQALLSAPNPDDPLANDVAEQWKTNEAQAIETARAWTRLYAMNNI
Format: functional.

Assay [7] concerns the target DNA dC->dU-editing enzyme APOBEC-3G (Homo sapiens, UniProt Q9HC16). Nature of the assay: Dose Response confirmation of small molecule APOBEC3G DNA Deaminase Inhibitors via a fluorescence-based single-stranded DNA deaminase assay. [Related pubchem assays (depositor defined):AID493012, AID493028]. Format: functional.
The target of a further assay is T6, Protein RecA (Mycobacterium tuberculosis, UniProt P9WHJ3).
T6 sequence (P9WHJ3 whole entry): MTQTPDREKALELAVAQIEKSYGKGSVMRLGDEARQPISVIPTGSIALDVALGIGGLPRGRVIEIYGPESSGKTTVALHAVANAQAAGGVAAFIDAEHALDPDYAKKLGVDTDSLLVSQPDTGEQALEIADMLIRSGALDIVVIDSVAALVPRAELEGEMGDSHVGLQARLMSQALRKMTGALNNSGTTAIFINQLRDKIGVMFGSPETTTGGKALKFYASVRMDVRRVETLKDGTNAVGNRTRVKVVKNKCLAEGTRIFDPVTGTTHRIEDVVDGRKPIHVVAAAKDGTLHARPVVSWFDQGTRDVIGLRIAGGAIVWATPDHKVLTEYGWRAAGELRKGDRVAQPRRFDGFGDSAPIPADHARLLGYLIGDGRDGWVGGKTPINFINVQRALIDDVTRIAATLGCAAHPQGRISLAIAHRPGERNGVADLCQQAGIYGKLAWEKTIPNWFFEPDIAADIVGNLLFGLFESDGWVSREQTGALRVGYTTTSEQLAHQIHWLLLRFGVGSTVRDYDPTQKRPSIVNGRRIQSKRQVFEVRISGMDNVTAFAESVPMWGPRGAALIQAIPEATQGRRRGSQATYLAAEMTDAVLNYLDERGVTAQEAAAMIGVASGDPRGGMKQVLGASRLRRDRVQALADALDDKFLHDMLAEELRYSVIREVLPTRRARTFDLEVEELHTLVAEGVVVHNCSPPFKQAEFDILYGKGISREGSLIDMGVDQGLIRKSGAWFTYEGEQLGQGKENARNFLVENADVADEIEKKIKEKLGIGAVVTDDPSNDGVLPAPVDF
Nature of the assay: Fluorescence Cell-Free Homogeneous Dose Retest to Identify Inhibitors of RecA-Intein Splicing Activity. [Related pubchem assays (depositor defined):AID2097, AID2223, AID489010, AID492950]. Format: functional.

The target in assay [8] is T7, Replicative DNA helicase DnaB (Mycobacterium tuberculosis, UniProt P9WMR3).
T7 sequence (P9WMR3 whole entry): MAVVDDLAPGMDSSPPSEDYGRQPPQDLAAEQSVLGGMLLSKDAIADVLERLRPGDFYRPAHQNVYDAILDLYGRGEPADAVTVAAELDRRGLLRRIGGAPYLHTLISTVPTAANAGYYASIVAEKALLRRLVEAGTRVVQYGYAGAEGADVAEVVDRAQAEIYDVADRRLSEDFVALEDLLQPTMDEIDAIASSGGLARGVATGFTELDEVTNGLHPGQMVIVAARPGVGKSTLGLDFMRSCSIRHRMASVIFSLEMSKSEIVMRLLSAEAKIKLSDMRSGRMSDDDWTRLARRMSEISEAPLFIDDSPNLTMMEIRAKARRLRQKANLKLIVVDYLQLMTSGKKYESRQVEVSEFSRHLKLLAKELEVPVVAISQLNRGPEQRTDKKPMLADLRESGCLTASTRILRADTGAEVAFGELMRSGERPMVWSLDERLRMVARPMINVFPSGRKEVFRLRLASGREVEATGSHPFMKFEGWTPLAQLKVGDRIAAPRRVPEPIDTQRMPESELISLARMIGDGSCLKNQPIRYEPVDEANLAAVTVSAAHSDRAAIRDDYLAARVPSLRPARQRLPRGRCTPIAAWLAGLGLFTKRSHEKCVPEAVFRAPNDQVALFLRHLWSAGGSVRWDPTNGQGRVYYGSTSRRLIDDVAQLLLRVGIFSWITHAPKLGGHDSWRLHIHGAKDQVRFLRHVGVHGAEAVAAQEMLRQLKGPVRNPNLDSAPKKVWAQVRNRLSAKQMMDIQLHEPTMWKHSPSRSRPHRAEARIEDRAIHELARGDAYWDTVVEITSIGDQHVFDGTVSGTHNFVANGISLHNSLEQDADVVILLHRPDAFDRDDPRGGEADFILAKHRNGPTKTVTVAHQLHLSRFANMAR
Nature of the assay: DnaB intein splicing inhibitors, dose response, biochemical, cell-free fluorescence (AID 449749). It counts as functional.

For assay [9], the target named is T8, Cytochrome P450 3A4 (Homo sapiens, UniProt P08684).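 Note: CYP3A4 tested as one member of a cytochrome P450 panel screen.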
T8 sequence (P08684 whole entry): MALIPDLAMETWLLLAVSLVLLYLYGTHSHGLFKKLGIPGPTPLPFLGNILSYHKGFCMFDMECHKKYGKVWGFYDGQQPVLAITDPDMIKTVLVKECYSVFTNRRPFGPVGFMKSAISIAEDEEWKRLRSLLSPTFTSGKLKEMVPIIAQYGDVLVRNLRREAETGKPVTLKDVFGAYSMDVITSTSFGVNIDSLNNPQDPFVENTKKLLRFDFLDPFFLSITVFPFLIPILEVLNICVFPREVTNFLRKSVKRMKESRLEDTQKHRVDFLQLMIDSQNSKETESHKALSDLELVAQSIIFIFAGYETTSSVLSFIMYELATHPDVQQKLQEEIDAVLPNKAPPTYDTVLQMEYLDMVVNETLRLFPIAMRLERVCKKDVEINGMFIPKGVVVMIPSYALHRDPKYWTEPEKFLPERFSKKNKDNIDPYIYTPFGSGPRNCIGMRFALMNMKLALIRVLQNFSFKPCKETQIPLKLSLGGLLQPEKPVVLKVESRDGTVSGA
Assay [10] addresses T8, Cytochrome P450 3A4. This is another data set of the same source.

Active and inactive are the calls of the source. Some results are limits rather than exact numbers.

Chain of DNA dC->dU-editing enzyme APOBEC-3G (Q9HC16 whole entry): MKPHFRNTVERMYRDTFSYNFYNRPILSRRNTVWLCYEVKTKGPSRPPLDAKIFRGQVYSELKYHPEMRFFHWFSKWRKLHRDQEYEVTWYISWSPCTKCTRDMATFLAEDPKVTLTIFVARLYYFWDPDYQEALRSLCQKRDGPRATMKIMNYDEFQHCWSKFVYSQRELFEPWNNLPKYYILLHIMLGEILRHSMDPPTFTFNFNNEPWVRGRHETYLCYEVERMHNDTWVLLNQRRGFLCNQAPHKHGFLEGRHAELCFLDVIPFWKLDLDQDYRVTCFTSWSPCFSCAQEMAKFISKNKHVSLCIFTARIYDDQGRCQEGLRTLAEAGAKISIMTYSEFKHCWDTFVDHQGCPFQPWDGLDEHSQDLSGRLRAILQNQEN

With `CC1CCCC(C)N1C(=O)c1cc(-c2ccc3c(c2)OCO3)on1` (stereo not given), in the assay with HeLa, the AC50 was > 350 µM (inactive). As for `CSc1nccc(N/N=C/c2ccccc2)n1`, the concentration for a half-maximal effect (EC50) in the assay on H4 is 2.55 µM (active); in [1] it was 0.32 µM (active). In addition, in the assay with HeLa, the half-maximal activity concentration (AC50) is 100 µM (active). Turning to `N#C/C(=C\c1ccc([N+](=O)[O-])cc1)c1nc(C2CC2)cs1`, the half-maximal effective concentration (EC50) was 10.4 µM (active) in assay [2] and > 99 µM (inactive) in [3]. For the compound `COCCN(C(=O)C1CC1)c1nnc(-c2ccc(C)cc2)s1`, at Coagulation factor XII, the IC50 was > 50 µM (inactive).

As for `CCOc1ccc(C(CC(=O)O)C(=O)O)cc1` (stereo not given), the concentration for half-maximal inhibition (IC50) in assay [4] was > 100 µM (not active). For `O=C(O)C1CCCCC1C(=O)Nc1ccc2c(c1)CCC2` (stereo not given), the EC50 in assay [5] is > 260 µM (inactive). In addition, the half-inhibitory concentration (IC50) at Leucine aminopeptidase is 9.16 µM (active). For the compound `N=C(N)Nc1ccc2[nH]c3c(c2c1)C[C@@]1(O)[C@H]2Cc4ccc(O)c5c4[C@@]1(CCN2CC1CC1)[C@H]3O5`, the IC50 was > 20 µM (inactive) in assay [6] and 24.4 µM (active) in assay [7]. Consider `Cc1onc(-c2c(F)cccc2Cl)c1-c1nnc(-c2ccc(C(F)(F)F)cc2)o1`, for which the IC50 at Coagulation factor XII is > 50 µM (inactive).

As to `COc1ccc(NC(=O)CN(C)C(=O)CNC(=O)c2sc3ccccc3c2Cl)cc1`, the AC50 in the assay on HeLa was 41.6 µM (active). With `Cc1oc(-c2cc(Cl)cc(Cl)c2)cc1C(=O)Nc1ccc(S(N)(=O)=O)cc1`, the IC50 in assay [4] was > 100 µM (not active). Consider `CCOC(=O)c1c(/N=C/C2C(=O)NC(=O)NC2=O)sc2c1CCC2`, for which the EC50 in [2] and in assay [3] was > 99 µM (inactive) throughout. For the compound `COc1ccc(C(=O)N/N=C\c2coc3ccc(C)cc3c2=O)cc1`, the EC50 in assay [2] and in assay [3] was > 99 µM (inactive) each time.

With `CC(=O)N1CCC2(CC1)C(C#N)=C(N)Oc1[nH]nc(CSc3ccc(C)cc3)c12`, the concentration for half-maximal inhibition (IC50) at Leucine aminopeptidase is 21.1 µM (active). Also, the EC50 at Protein RecA is 2.9 µM (active). In [8], the AC50 is 4.72 µM (active). For `CSc1ccc(-c2nnn(Cc3ccc(C)cc3)n2)cc1`, the concentration at half-maximal activity (AC50) with HeLa is 98 µM (active). Take `CN(C)c1ccc(C(=S)N2CCN(c3ccc([N+](=O)[O-])cc3)CC2)cc1`: the IC50 at Coagulation factor XII was > 50 µM (inactive). Take `CCN1CCN(C2=C(Cl)C(=O)N(c3cccc(C)c3)C2=O)CC1`: the IC50 in assay [4] was > 50 µM (inconclusive). `N#C/C(=C\C1=C(N2CCOCC2)C(=C/c2cccc([N+](=O)[O-])c2)/CC1)C(=O)Nc1ccccc1F`: the EC50 in assay [2] and in assay [3] was > 99 µM (inactive) each time. `Nc1ccccc1C#Cc1ccccc1`: the AC50 at Cytochrome P450 3A4 [9] was 15.8 µM (inconclusive); at Cytochrome P450 3A4 [10] it was 15.8 µM (inconclusive); with HeLa, > 350 µM (inactive).
